Drawing on patent US7115658B2 (priority 2002, dated 2006), this text covers IC50 for 34 compounds.

The experiment deals with T1, Recombinant HCV polymerase (Hepatitis C virus genotype 1b, UniProt P26663).
T1 construct: 2.5 pmoles (0.15 μg) HCV polymerase protein
T1 sequence (P26663 2420-3010): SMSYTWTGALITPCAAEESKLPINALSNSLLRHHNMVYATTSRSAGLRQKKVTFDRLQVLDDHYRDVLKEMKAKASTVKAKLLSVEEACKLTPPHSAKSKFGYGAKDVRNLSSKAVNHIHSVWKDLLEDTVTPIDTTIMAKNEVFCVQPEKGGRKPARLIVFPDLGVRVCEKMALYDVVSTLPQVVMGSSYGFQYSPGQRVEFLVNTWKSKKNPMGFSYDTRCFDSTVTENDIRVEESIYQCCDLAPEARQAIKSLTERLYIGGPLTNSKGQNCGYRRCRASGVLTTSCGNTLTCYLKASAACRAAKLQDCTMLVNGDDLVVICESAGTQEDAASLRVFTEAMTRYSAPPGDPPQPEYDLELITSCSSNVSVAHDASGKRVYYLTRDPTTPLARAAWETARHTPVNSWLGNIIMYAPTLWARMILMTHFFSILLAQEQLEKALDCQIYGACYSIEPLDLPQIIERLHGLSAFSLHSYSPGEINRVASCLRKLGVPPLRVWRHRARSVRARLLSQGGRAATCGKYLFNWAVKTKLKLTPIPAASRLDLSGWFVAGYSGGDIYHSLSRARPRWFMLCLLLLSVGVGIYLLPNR
In words: HCV Polymerase Inhibition Assay. To be noted: primer/template-directed transcription, 30 minutes at 30° C.; category symbol. The experiment is classed as biochemical. As to the method:
The above-described compounds were tested for activity with HCV polymerase. Recombinant HCV polymerase was tested for its ability to perform primer/template-directed transcription in assays that contained 30 mM tris-HCl pH 7.2, 10 mM MgCl2, 20 mM NaCl, 1 mM Dithiothreitol (DTT), 0.05% Tween-20, 1% glycerol, 5 pmoles biotin-dG12 (primer), 0.5 pmoles poly(rC)300 (template), 1 μM GTP, 0.1–0.3 uCi α-^32P-GTP, and 2.5 pmoles (0.15 μg) HCV polymerase protein in a final volume of 75 μL. Reactions were initiated by addition of enzyme and incubated 30 minutes at 30° C. Reactions were stopped by addition of 33 mM EDTA, and polynucleotide products were collected by filtration through Diethylaminoethyl (DE) Filtermat papers (Wallac). Unincorporated triphosphate was removed by washing the filters with 5% dibasic sodium phosphate. The filters were counted in a Packard Tri-Lux Microbeta scintillation counter (Packard Bioscience, Meriden, Conn.). Compounds to be tested were added at various concentrations, e.g., 1 μm to 50 μm, from stocks in 10% DMSO-water (final DMSO is 1% in reaction).
IC50 values were estimated from the primary cpm data (collected in triplicate) using the formula: cpm (I)=cpm (no inhibitor)(1−([I]/([I]+IC50))). An IC50 value represents the concentration (in μM) of a compound that provides 50% inhibition of polymerase-directed transcription in the above assay. A percent inhibition value is expressed for a compound where it was impractical to calculate an IC50 value with available data. If the IC50 estimated by the above equation was less than 200 nM, it was recalculated using the following equation, which takes into account the enzyme concentration (30 nM) in the assay: cpm(I)=cpm(no inhibitor)(1−((((I+IC50+30e−9)−sqrt(((I+IC50+30e−9)^2)−4×30e−9×I)))/((2) (30e−9))). Curve fitting was performed using the program KaleidaGraph (Synergy Software, Reading, Pa.).
Regarding `CC(C)Oc1ccc(CCC2(C3CCCC3)CC(=O)CC(=O)O2)cc1Cl` (stereo not shown) [Example 81, 6-[2-(3-Chloro-4-isopropoxy-phenyl)-ethyl]-6-cyclopentyl-dihydro-pyran-2,4-dione], the IC50 was under 1 µM.
For `COc1cc(OC)c(CCC2(C3CCCC3)CC(=O)CC(=O)O2)cc1Cl` (stereo not shown) [Example 39, 6-[2-(5-chloro-2,4-dimethoxyphenyl)ethyl]-6-cyclopentyldihydro-2H-pyran-2,4(3H)-dione] the value was under 1 µM; for `O=C1CC(=O)OC(CCc2ccc3c(c2)OCCO3)(C2CCCC2)C1` (stereo not shown) [Example 32, 6-Cyclopentyl-6-[2-(2,3-dihydro-benzo[1,4]dioxin-6-yl)-ethyl]-dihydro-pyran-2,4-dione], 1 to 10 µM; for `COc1ccccc1CCC1(C2CCCC2)CC(=O)CC(=O)O1` (stereo not shown) [Example 4, 6-Cyclopentyl-6-[2-(2-methoxyphenyl)ethyl]dihydropyran-2,4-dione], 10 to 50 µM.
With `COc1ccc(CCC2(C3CCCC3)CC(O)=C(Sc3nc4nc(C)cc(C)n4n3)C(=O)O2)cc1` (stereo not shown) [Example 92, 6-[2-(4-methoxyphenyl)ethyl]-6-cyclopentyl-3-[(5,7-dimethyl[1,2,4]triazolo[1,5-a]pyrimidin-2-yl)thio]-4-hydroxy-5,6-dihydro-2H-pyran-2-one], the IC50 was under 1 µM.
Then `CCn1nnnc1SC1=C(O)CC(CCc2cc(Cl)c(OC)cc2OC)(C2CCCC2)OC1=O` (stereo not shown) [Example 106, 6-[2-(5-Chloro-2,4-dimethoxyphenyl)ethyl]-6-cyclopentyl-3-[(1-ethyl-1H-tetraazol-5-yl)thio]-4-hydroxy-5,6-dihydro-2H-pyran-2-one], with under 1 µM.
For `COc1cc(OC)c(CCC2(C3CCCC3)CC(O)=C(Sc3nc4nc(C)cc(C)n4n3)C(=O)O2)cc1Cl` (stereo not shown) [Example 91, 6-[2-(5-Chloro-2,4-dimethoxyphenyl)ethyl]-6-cyclopentyl-3-[(5,7-dimethyl[1,2,4]triazolo[1,5-a]pyrimidin-2-yl)thio]-4-hydroxy-5,6-dihydro-2H-pyran-2-one] the value was under 1 µM; for `CC1(c2ccc(CCC3(C4CCCC4)CC(=O)CC(=O)O3)cc2Cl)CC(=O)CC(=O)O1` (stereo not shown) [Example 82, 6-Cyclopentyl-[6-(2-Chloro-phenyl)-6-methyl-dihydro-pyran-2,4-dione]-dihydro-pyran-2,4-dione], under 1 µM.
Then `COc1cc(OC)c(CCC2(C3CCCC3)CC(O)=C(Cl)C(=O)O2)cc1Cl` (stereo not shown) [Example 90], with under 1 µM; and `O=C1CC(=O)OC(CCc2ccc(Cl)c(Cl)c2)(C2CCCC2)C1` (stereo not shown) [Example 53, 6-Cyclopentyl-6-[2-(3,4-dichloro-phenyl)-ethyl]-dihydro-pyran-2,4-dione], with 1 to 10 µM; and `COc1cc(CCC2(C3CCCC3)CC(O)=CC(=O)O2)ccc1O` (stereo not shown) [Example 19, 6-Cyclopentyl-4-hydroxy-6-[2-(4-hydroxy-3-methoxy-phenyl)-ethyl]-5,6-dihydro-pyran-2-one], with 1 to 10 µM.
On to `O=C1OC(CCc2ccc(O)cc2)(C2CCCC2)CC(O)=C1Sc1ccc2ccccc2c1` (stereo not shown) [Example 83], for which the IC50 fell in the range of 1 to 10 µM.
Consider `CC(C)c1cccc(CCC2(C3CCCC3)CC(=O)CC(=O)O2)c1` (stereo not shown) [Example 9, 6-Cyclopentyl-6-[2-(3-isopropyl-phenyl)-ethyl]-dihydro-pyran-2,4-dione], for which the IC50 is 1 to 10 µM.
Take “6-[2-(3-Chloro-4-isopropoxy-phenyl)-ethyl]-6-cyclopentyl-4-hydroxy-3-(4-methoxy-phenylsulfanyl)-5,6-dihydro-pyran-2-one [Example 131]”: the IC50 is under 1 µM.
Take `COc1ccc(CCC2(C3CCCC3)CC(O)=C(Sc3nnnn3-c3ccc(O)cc3)C(=O)O2)cc1` (stereo not shown) [Example 114, 6-Cyclopentyl-4-hydroxy-3-([1-(4-hydroxyphenyl)-1H-tetraazol-5-yl]thio)-6-[2-(4-methoxyphenyl)ethyl]-5,6-dihydro-2H-pyran-2-one]: the IC50 was under 1 µM.
For the compound `COc1ccc(CCC2(C3CCCC3)CC(=O)C(C(=O)Cc3ccccc3)C(=O)O2)cc1` (stereo not shown) [Example 171, 6-Cyclopentyl-6-[2-(4-methoxy-phenyl)-ethyl]-3-phenylacetyl-dihydro-pyran-2,4-dione], the IC50 lay in the range of 10 to 50 µM.
On to `COc1ccc(CCC2(C3CCCC3)CC(O)=C(Cl)C(=O)O2)cc1` (stereo not shown) [Example 87, 3-Chloro-6-cyclopentyl-4-hydroxy-6-[2-(4-methoxyphenyl)ethyl]-5,6-dihydropyran-2-one], for which the IC50 lay in the range of 10 to 50 µM.
Then `Cc1cc(SC2=C(O)CC(CCc3ccc(O)cc3)(C3CCCC3)OC2=O)c(C(C)(C)C)cc1C(N)=O` (stereo not shown) [Example 146, 5-tert-butyl-4-{6-Cyclopentyl-4-hydroxy-6-[2-(4-hydroxy-phenyl)-ethyl]-2-oxo-5,6-dihydro-2H-pyran-3-ylsulfanyl}-2-methyl-benzamide], with 1 to 10 µM.
Then `O=C1OC(CCc2ccc(O)cc2)(C2CCCC2)CC(O)=C1SCc1ccccc1` (stereo not shown) [Example 84, 3-Benzylsulfanyl-6-cyclopentyl-4-hydroxy-6-[2-(4-hydroxyphenyl)ethyl]-5,6-dihydropyran-2-one], with 1 to 10 µM; and `O=C1O[C@](CCc2cccc(O)c2)(C2CCCC2)CC(O)=C1N(c1ccccc1)c1ccccc1` [Example 156, (S)-6-Cyclopentyl-3-diphenylamino-4-hydroxy-6-[2-(3-hydroxy-phenyl)-ethyl]-5,6-dihydro-pyran-2-one], with 10 to 50 µM; and `CCOc1c(F)cc(CCC2(C3CCCC3)CC(=O)CC(=O)O2)cc1F` (stereo not shown) [Example 42], with 1 to 10 µM.
Then `O=C1CC(=O)OC(CCc2ccc(N3CCCC3=O)cc2)(C2CCCC2)C1` (stereo not shown) [Example 79, 6-Cyclopentyl-6-{2-[4-(2-oxo-pyrrolidin-1-yl)-phenyl]-ethyl}-dihydro-pyran-2,4-dione], with 1 to 10 µM; and `COc1cc(OC)c(CCC2(C3CCCC3)CC(O)=C(Sc3nccs3)C(=O)O2)cc1Cl` (stereo not shown) [Example 109, 6-[2-(5-Chloro-2,4-dimethoxyphenyl)ethyl]-6-cyclopentyl-4-hydroxy-3-(1,3-thiazol-2-ylthio)-5,6-dihydro-2H-pyran-2-one], with under 1 µM; and `COc1ccc(CCC2(C3CCCC3)CC(=O)C(C(=O)c3ccccc3)C(=O)O2)c(OC)c1` (stereo not shown) [Example 175, 3-Benzoyl-6-cyclopentyl-6-[2-(2,4-dimethoxy-phenyl)-ethyl]-dihydro-pyran-2,4-dione], with 10 to 50 µM.
For the compound `O=C1CC(CCc2ccccc2)(C2CCCC2)OC(=O)C1Cc1ccccc1` (stereo not shown) [Example 88, 3-benzyl-6-cyclopentyl-6-(2-phenylethyl)dihydro-2H-pyran-2,4(3H)-dione], the IC50 lay in the range of 10 to 50 µM.
For `COC(=O)c1ccc(CCC2(C3CCCC3)CC(=O)CC(=O)O2)cc1` (stereo not shown) [Example 65, 4-[2-(2-Cyclopentyl-4,6-dioxo-tetrahydro-pyran-2-yl)-ethyl]-benzoic acid methyl ester] the value was 1 to 10 µM.
For `COc1ccc(CCC2(C3CCCC3)CC(=O)CC(=O)O2)cc1C` (stereo not shown) [Example 29, 6-Cyclopentyl-6-[2-(4-methoxy-3-methyl-phenyl)-ethyl]-dihydro-pyran-2,4-dione] the value was 1 to 10 µM; for `O=C1C=C(O)CC(CCc2ccc(Oc3ccccc3)cc2)(C2CCCC2)O1` (stereo not shown) [Example 47, 6-cyclopentyl-6-[2-(4-phenoxyphenyl)ethyl]-4-hydroxy-5,6-dihydro-2H-pyran-2-one], 10 to 50 µM.
Consider `O=C1CC(=O)OC(CCc2ccc(O)cc2)(C2CCCC2)C1` (stereo not shown) [Example 1, 6-Cyclopentyl-6-[2-(4-hydroxyphenyl)ethyl]dihydropyran-2,4-dione], for which the IC50 lay in the range of 10 to 50 µM.
Then “6-[2-(3-Chloro-4-isopropoxy-phenyl)-ethyl]-6-cyclopentyl-4-hydroxy-3-(thiazol-2-ylsulfanyl)-5,6-dihydro-pyran-2-one [Example 132]”, with under 1 µM; and `CN(C)S(=O)(=O)c1ccc(CCC2(C3CCCC3)CC(=O)CC(=O)O2)cc1` (stereo not shown) [Example 76, 4-[2-(2-Cyclopentyl-4,6-dioxo-tetrahydro-pyran-2-yl)-ethyl]-dimethyl-benzenesulfonamide], with 10 to 50 µM; and `CC(=O)c1ccc(CCC2(C3CCCC3)CC(=O)CC(=O)O2)cc1` (stereo not shown) [Example 63, 6-[2-(4-Acetyl-phenyl)-ethyl]-6-cyclopentyl-dihydro-pyran-2,4-dione], with 1 to 10 µM.
Take `CCCOc1ccc(CCC2(C3CCCC3)CC(=O)CC(=O)O2)cc1F` (stereo not shown) [Example 72, 6-Cyclopentyl-6-[2-(3-fluoro-4-propoxy-phenyl)-ethyl]-dihydro-pyran-2,4-dione]: the IC50 lay within 1 to 10 µM.
In the case of “6-[2-(3-Chloro-4-isopropoxy-phenyl)-ethyl]-6-cyclopentyl-4-hydroxy-3-(4-hydroxy-phenylsulfanyl)-5,6-dihydro-pyran-2-one [Example 130]”, the IC50 was under 1 µM.

As usually defined, the IC50 is the concentration that inhibits the measured activity by half.
